Measured values reported in patent publication US20150005281A1, “PYRIMIDINE-2,4-DIAMINE DERIVATIVES AS KINASE INHIBITORS” (Cellzome Limited, priority 2011, published 2015).

Key:
Assay type in all cases: binding
[1] = biological target: T1, JAK3 (Homo sapiens, UniProt P52333); experiment: Kinobeads assay with immunodetection, JAK3; conditions: for IC50: Kinobeads assay, mixed Molt4/Ramos lysate, read-out: Inhibition values (IC50) JAK3
T1 construct: endogenous in cells; host or cells: Molt4 (ATCC CRL-1582) and Ramos (ATCC CRL-1596) cells; mixed lysate 1:2
T1 sequence (P52333 1-1124): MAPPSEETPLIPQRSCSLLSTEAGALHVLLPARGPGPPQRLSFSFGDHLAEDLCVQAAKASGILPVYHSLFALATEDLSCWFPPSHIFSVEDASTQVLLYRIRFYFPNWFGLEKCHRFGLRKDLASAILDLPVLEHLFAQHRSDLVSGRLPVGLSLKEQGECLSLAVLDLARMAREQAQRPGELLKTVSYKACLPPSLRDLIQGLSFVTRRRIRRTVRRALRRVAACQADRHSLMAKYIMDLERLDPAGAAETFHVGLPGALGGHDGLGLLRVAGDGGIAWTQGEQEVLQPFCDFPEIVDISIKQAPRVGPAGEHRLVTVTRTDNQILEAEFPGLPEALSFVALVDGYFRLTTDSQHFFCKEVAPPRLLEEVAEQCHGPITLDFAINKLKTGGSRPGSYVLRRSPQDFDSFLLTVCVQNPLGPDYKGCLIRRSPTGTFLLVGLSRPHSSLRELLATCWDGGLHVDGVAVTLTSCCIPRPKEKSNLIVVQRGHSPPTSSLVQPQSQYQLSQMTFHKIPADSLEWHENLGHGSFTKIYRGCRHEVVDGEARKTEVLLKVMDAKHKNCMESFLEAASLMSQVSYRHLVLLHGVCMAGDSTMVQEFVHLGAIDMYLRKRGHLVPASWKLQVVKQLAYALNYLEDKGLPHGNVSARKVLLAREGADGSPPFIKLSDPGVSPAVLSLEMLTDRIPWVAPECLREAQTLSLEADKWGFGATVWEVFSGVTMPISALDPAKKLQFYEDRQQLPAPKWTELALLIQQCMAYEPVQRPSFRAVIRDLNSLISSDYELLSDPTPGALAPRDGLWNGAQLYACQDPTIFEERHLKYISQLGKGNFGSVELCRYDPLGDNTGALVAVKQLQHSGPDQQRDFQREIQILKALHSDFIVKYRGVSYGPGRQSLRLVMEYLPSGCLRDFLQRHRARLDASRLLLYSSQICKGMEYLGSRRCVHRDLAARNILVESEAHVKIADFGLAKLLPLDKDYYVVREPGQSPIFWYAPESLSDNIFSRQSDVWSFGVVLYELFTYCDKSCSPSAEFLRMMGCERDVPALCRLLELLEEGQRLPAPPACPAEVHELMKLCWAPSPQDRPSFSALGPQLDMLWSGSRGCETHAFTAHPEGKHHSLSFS
Outline: (§1)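 Competition binding: test compounds (9-step 1:3 dilutions of a 5 mM DMSO stock) compete with affinity matrix ligand for kinases in Molt4 plus Ramos lysate (ratio 1:2, 10 mg/mL) over 3 h in a cold room. Captured kinases are detected by specific antibodies in dot blot, and IC50 values are derived per kinase.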

[2] = biological target: T2, JAK1 (Homo sapiens, UniProt P23458); experiment: Kinobeads assay with immunodetection, JAK1; conditions: for IC50: Kinobeads assay, mixed Molt4/Ramos lysate, read-out: Inhibition values (IC50) JAK1
T2 construct: endogenous in cells; host or cells: Molt4 (ATCC CRL-1582) and Ramos (ATCC CRL-1596) cells; mixed lysate 1:2
T2 sequence (P23458 whole entry): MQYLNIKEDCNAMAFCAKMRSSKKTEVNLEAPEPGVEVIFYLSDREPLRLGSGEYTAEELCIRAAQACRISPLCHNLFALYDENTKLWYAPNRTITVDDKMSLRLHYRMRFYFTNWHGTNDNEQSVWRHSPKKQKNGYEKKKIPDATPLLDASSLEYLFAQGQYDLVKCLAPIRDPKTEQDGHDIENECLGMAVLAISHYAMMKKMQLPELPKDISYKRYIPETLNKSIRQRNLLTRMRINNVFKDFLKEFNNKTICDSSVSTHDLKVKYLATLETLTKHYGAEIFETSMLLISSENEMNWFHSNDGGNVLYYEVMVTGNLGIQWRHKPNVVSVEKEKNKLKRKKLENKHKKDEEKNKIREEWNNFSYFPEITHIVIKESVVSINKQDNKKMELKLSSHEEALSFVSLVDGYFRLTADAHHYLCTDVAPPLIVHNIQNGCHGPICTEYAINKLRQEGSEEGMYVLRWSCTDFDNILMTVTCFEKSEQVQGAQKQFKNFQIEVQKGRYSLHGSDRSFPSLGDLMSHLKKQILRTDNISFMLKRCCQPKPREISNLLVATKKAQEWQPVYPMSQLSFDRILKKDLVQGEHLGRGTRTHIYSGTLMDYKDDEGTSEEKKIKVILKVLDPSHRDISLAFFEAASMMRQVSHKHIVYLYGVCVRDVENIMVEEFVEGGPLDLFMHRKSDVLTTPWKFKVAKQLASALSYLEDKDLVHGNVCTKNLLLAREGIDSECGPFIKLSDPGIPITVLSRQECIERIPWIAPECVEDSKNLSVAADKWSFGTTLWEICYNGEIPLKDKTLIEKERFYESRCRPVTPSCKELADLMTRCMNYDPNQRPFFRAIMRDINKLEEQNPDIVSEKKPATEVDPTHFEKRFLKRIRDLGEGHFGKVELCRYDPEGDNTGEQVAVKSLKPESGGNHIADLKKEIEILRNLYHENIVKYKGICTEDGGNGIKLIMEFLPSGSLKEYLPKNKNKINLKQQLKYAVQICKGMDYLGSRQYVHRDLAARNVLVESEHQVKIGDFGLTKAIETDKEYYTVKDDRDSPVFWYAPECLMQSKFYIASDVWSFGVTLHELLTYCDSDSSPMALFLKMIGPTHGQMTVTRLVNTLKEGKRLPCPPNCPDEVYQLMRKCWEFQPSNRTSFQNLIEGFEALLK
Outline: as §1

[3] = biological target: T3, TYK2 (Homo sapiens, UniProt P29597); experiment: Kinobeads assay with immunodetection, TYK2; conditions: for IC50: Kinobeads assay, mixed Molt4/Ramos lysate, read-out: Inhibition values (IC50) Tyk2
T3 construct: endogenous in cells; host or cells: Molt4 (ATCC CRL-1582) and Ramos (ATCC CRL-1596) cells; mixed lysate 1:2
T3 sequence (P29597 whole entry): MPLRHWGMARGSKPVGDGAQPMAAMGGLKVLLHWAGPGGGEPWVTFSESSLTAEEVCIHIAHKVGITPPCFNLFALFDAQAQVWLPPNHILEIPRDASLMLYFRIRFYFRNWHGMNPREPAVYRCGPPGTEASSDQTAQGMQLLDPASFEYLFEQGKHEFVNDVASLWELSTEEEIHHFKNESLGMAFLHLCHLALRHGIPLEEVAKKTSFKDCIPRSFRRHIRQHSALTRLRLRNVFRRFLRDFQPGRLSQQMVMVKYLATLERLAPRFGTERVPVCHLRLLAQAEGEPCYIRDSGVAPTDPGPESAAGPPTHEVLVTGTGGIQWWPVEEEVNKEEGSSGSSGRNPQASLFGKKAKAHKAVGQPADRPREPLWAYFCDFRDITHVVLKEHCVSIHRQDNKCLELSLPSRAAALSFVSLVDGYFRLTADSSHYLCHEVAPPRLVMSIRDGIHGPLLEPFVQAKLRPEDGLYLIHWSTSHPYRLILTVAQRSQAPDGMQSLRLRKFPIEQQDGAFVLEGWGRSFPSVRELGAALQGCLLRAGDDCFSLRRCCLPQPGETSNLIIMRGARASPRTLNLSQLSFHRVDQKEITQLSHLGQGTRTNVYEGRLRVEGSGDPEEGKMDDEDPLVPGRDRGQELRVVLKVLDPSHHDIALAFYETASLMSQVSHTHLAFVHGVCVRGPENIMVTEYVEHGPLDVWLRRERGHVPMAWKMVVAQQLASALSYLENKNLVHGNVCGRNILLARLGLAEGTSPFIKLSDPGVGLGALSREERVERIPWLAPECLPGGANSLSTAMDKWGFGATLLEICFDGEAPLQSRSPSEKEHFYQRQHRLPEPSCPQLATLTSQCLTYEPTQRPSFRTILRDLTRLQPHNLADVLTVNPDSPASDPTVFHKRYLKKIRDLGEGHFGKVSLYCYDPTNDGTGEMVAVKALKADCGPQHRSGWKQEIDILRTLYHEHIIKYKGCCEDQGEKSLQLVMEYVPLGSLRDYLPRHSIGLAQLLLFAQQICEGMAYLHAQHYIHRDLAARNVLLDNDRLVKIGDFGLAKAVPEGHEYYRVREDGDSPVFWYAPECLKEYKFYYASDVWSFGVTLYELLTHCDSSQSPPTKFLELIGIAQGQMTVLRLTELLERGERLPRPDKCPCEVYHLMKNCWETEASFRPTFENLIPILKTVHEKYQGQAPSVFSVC
Outline: as §1

[4] = biological target: T4, JAK2 (Homo sapiens, UniProt O60674); experiment: Kinobeads assay with immunodetection, JAK2; conditions: mixed Molt4/Ramos lysate, read-out: Inhibition values (IC50) JAK2
T4 construct: endogenous in cells; host or cells: Molt4 (ATCC CRL-1582) and Ramos (ATCC CRL-1596) cells; mixed lysate 1:2
T4 sequence (O60674 whole entry): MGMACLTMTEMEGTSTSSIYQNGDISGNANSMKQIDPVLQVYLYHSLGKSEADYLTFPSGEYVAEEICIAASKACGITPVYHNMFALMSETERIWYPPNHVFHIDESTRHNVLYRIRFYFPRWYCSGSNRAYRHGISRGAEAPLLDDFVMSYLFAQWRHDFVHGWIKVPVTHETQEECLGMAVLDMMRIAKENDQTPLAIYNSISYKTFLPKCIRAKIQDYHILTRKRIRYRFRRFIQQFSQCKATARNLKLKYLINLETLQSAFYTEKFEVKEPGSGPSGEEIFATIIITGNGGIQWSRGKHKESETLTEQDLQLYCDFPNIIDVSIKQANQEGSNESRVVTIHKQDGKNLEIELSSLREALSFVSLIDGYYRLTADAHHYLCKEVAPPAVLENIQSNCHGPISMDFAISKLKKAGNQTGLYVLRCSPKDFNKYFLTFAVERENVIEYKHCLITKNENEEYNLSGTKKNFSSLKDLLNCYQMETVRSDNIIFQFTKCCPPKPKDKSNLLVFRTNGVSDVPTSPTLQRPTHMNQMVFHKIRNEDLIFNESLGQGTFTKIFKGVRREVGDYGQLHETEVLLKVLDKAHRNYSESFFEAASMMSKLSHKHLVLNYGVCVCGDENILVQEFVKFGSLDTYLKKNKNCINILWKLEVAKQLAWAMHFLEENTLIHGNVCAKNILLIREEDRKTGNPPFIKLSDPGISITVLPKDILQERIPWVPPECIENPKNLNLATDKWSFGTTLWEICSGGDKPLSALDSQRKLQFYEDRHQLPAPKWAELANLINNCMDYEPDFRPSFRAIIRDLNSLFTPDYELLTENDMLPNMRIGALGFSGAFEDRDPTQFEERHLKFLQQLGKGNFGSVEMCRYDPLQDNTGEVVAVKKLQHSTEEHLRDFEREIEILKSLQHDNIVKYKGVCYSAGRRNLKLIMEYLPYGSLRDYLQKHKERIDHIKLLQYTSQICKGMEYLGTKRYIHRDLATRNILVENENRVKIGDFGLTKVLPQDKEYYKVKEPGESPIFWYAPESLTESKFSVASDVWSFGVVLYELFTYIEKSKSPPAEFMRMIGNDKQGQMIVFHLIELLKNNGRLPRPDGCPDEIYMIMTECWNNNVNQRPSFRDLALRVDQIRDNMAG
Outline: as §1

Row | SMILES | IC50 [1] | Selectivity ratio over JAK2, JAK1 [2] | IC50 [2] | IC50 [3] | IC50 [4] | Selectivity ratio over JAK2, Tyk2 [3] | Selectivity ratio over JAK2, JAK3 ([1]; JAK3 over JAK2)
1 | CN1C(=O)CCC1CNc1nc(Nc2cnn(C)c2)ncc1Cl (stereo not drawn) [Example 78, 5-(((5-chloro-2-((1-methyl-1H-pyrazol-4-yl)amino)pyrimidin-4-yl)amino)methyl)-1-methylpyrrolidin-2-one] | 1000 to 10000 nM | JAK1 = 38 | 100 to 1000 nM | 100 to 1000 nM | 1000 to 10000 nM |  | 
2 | Cn1cc(Nc2ncc(Cl)c(NC[C@H]3CCCN3CCC(F)(F)F)n2)cn1 [Example 80, (R)-5-chloro-N^2-(1-methyl-1H-pyrazol-4-yl)-N^4-((1-(3,3,3-trifluoropropyl)pyrrolidin-2-yl)methyl)pyrimidine-2,4-diamine] | 100 to 1000 nM |  | < 100 nM | < 100 nM | < 100 nM | Tyk2 = 33 | 
3 | Cn1cc(Nc2ncc(Cl)c(NC[C@@H]3CCCN3CCC#N)n2)cn1 [Example 81, (S)-3-(2-(((5-chloro-2-((1-methyl-1H-pyrazol-4-yl)amino)pyrimidin-4-yl)amino)methyl)pyrrolidin-1-yl)propanenitrile] | 100 to 1000 nM |  | < 100 nM | < 100 nM | < 100 nM | Tyk2 = 11 | 
4 | Cn1cc(Nc2ncc(Cl)c(NC[C@@H]3CCCN3CCS(C)(=O)=O)n2)cn1 [Example 82, (S)-5-chloro-N^2-(1-methyl-1H-pyrazol-4-yl)-N^4-((1-(2-(methylsulfonyl)ethyl)pyrrolidin-2-yl)methyl)pyrimidine-2,4-diamine] | 100 to 1000 nM | JAK1 = 34 | < 100 nM | < 100 nM | < 100 nM |  | 
5 | CC(C)NC(=O)Cn1cc(Nc2nccc(NC[C@H]3CCCN3CCC#N)n2)cn1 [Example 83, (R)-2-(4-((4-(((1-(2-cyanoethyl)pyrrolidin-2-yl)methyl)amino)pyrimidin-2-yl)amino)-1H-pyrazol-1-yl)-N-isopropylacetamide] | 1000 to 10000 nM |  | 1000 to 10000 nM | < 100 nM | > 10000 nM | Tyk2 = 650 | 
6 | CC(C)NC(=O)Cn1cc(Nc2nccc(NC[C@H]3CCCN3CCS(C)(=O)=O)n2)cn1 [Example 84, (R)—N-isopropyl-2-(4-((4-(((1-(2-(methylsulfonyl)ethyl)pyrrolidin-2-yl)methyl)amino)pyrimidin-2-yl)amino)-1H-pyrazol-1-yl)acetamide] | 100 to 1000 nM |  | 100 to 1000 nM | < 100 nM | > 10000 nM | Tyk2 = 435 | 
7 | CS(=O)(=O)N1CC[C@H](CNc2nc(Nc3cnn(CCO)c3)ncc2Cl)C1 [Example 85, (R)-2-(4-((5-chloro-4-(((1-(methylsulfonyl)pyrrolidin-3-yl)methyl)amino)pyrimidin-2-yl)amino)-1H-pyrazol-1-yl)ethanol] | 100 to 1000 nM | JAK1 = 27 | < 100 nM | < 100 nM | 100 to 1000 nM |  | 
8 | Cn1cc(Nc2ncc(Cl)c(NC[C@H]3CCCN3C(=O)CCC#N)n2)cn1 [Example 86, (R)-4-(2-(((5-chloro-2-((1-methyl-1H-pyrazol-4-yl)amino)pyrimidin-4-yl)amino)methyl)pyrrolidin-1-yl)-4-oxobutanenitrile] | < 100 nM |  | < 100 nM | < 100 nM | 100 to 1000 nM | Tyk2 = 33 | 
9 | Cn1cc(Nc2ncc(Cl)c(NCC3COCCN3CCS(C)(=O)=O)n2)cn1 (stereo not drawn) [Example 87, 5-chloro-N^2-(1-methyl-1H-pyrazol-4-yl)-N^4-((4-(2-(methylsulfonyl)ethyl)morpholin-3-yl)methyl)pyrimidine-2,4-diamine] | < 100 nM |  | 100 to 1000 nM | 100 to 1000 nM | 1000 to 10000 nM |  | JAK3 = 33
10 | CCNC(=O)N1CCC[C@@H]1CNc1nc(Nc2cnn(C)c2)ncc1Cl [Example 88, (R)-2-(((5-chloro-2-((1-methyl-1H-pyrazol-4-yl)amino)pyrimidin-4-yl)amino)methyl)-N-ethylpyrrolidine-1-carboxamide] | 100 to 1000 nM |  | 100 to 1000 nM | < 100 nM | 100 to 1000 nM | Tyk2 = 35 | 
11 | Cn1cc(Nc2ncc(Cl)c(NC[C@H]3CCCN3C(=O)NC3CC3)n2)cn1 [Example 89, (R)-2-(((5-chloro-2-((1-methyl-1H-pyrazol-4-yl)amino)pyrimidin-4-yl)amino)methyl)-N-cyclopropylpyrrolidine-1-carboxamide] | 100 to 1000 nM |  | < 100 nM | < 100 nM | 100 to 1000 nM | Tyk2 = 5 | 

Other lines, results leading:

Row | IC50 [1] | Selectivity ratio over JAK2, JAK1 [2] | IC50 [2] | IC50 [3] | IC50 [4] | Selectivity ratio over JAK2, Tyk2 [3] | Selectivity ratio over JAK2, JAK3 ([1]; JAK3 over JAK2) | SMILES
12 | < 100 nM | JAK1 = 23 | < 100 nM | < 100 nM | 100 to 1000 nM |  |  | Cn1cc(Nc2ncc(Cl)c(NC[C@@H]3C[C@H](F)CN3CCC#N)n2)cn1 [Example 90, 3-((2S,4S)-2-(((5-chloro-2-((1-methyl-1H-pyrazol-4-yl)amino)pyrimidin-4-yl)amino)methyl)-4-fluoropyrrolidin-1-yl)propanenitrile]
13 | < 100 nM | JAK1 = 27 | < 100 nM | < 100 nM | 100 to 1000 nM |  |  | Cn1cc(Nc2ncc(Cl)c(NC[C@@H]3C[C@H](F)CN3CCS(C)(=O)=O)n2)cn1 [Example 91, 5-chloro-N^4-(((2S,4S)-4-fluoro-1-(2-(methylsulfonyl)ethyl)pyrrolidin-2-yl)methyl)-N^2-(1-methyl-1H-pyrazol-4-yl)pyrimidine-2,4-diamine]
14 | < 100 nM | JAK1 = 30 | < 100 nM | < 100 nM | 100 to 1000 nM |  |  | Cn1cc(Nc2ncc(Cl)c(NC[C@@H]3CCCN3C(=O)CCC#N)n2)cn1 [Example 92, (S)-4-(2-(((5-chloro-2-((1-methyl-1H-pyrazol-4-yl)amino)pyrimidin-4-yl)amino)methyl)pyrrolidin-1-yl)-4-oxobutanenitrile]
15 | 1000 to 10000 nM |  | < 100 nM | < 100 nM | 1000 to 10000 nM | Tyk2 = 145 |  | Cn1cc(Nc2nccc(NC[C@H]3CCCN3C(=O)CCC#N)n2)cn1 [Example 93, (R)-4-(2-(((2-((1-methyl-1H-pyrazol-4-yl)amino)pyrimidin-4-yl)amino)methyl)pyrrolidin-1-yl)-4-oxobutanenitrile]
16 | 1000 to 10000 nM |  | 100 to 1000 nM | < 100 nM | 1000 to 10000 nM | Tyk2 = 609 |  | CC(C)NC(=O)Cn1cc(Nc2nccc(NC[C@H]3CCCN3C(=O)CCC#N)n2)cn1 [Example 94, (R)-2-(4-((4-(((1-(3-cyanopropanoyl)pyrrolidin-2-yl)methyl)amino)pyrimidin-2-yl)amino)-1H-pyrazol-1-yl)-N-isopropylacetamide]
17 | 1000 to 10000 nM |  | 100 to 1000 nM | < 100 nM | 1000 to 10000 nM | Tyk2 = 138 |  | Cn1cc(Nc2nccc(NC[C@H]3CCCN3C(=O)CC#N)n2)cn1 [Example 95, (R)-3-(2-(((2-((1-methyl-1H-pyrazol-4-yl)amino)pyrimidin-4-yl)amino)methyl)pyrrolidin-1-yl)-3-oxopropanenitrile]
18 | 1000 to 10000 nM |  | 100 to 1000 nM | < 100 nM | > 10000 nM | Tyk2 = 555 |  | CC(C)NC(=O)Cn1cc(Nc2nccc(NC[C@H]3CCCN3C(=O)CC#N)n2)cn1 [Example 96, (R)-2-(4-((4-(((1-(2-cyanoacetyl)pyrrolidin-2-yl)methyl)amino)pyrimidin-2-yl)amino)-1H-pyrazol-1-yl)-N-isopropylacetamide]
